Laboratory results reported in ChEMBL document CHEMBL4613326 (J Med Chem, 2020).
Activity calls are given as the source filed them. The rule behind the calls is not given here.

Legend:
Autotaxin [1] = biological target: T1, Autotaxin (Homo sapiens, UniProt Q13822); experiment: Inhibition of human ATX pre-incubated for 45 mins before fluorogenic substrate-3 addition and measured every minute for 30 mins by fluorescence based assay
Autotaxin [2] = biological target: T1, Autotaxin
Description: Inhibition of human ATX by LPC choline release assay

Mus musculus [3] = experiment: (§1) Ex-vivo inhibition of ATX lysoPLD activity in lung homogenate isolated from C57BL/6 mouse model of bleomycin sulfate-induced idiopathic pulmonary fibrosis assessed absorbance for artificial substrate FS-3 cleavage at 60 mg/kg, po dosed once daily for 31 days followed by bleomycin sulfate challenge on day 3 by fluorescence based assay; format: functional
Mus musculus [4] = experiment: (§2) Protection against lung fibrosis in C57BL/6 mouse model of bleomycin sulfate-induced idiopathic pulmonary fibrosis assessed as induction of body weight recovery at 60 mg/kg, po dosed once daily for 31 days followed by bleomycin sulfate challenge on day 3; format: functional, organism-based
Mus musculus [5] = experiment: (§3) Protection against lung fibrosis in C57BL/6 mouse model of bleomycin sulfate-induced idiopathic pulmonary fibrosis assessed as induction of improvement in histopathological changes by measuring modified Ashcroft score level at 20 mg/kg, po dosed once daily for 31 days followed by bleomycin sulfate challenge on day 3 by hematoxylin and eosin staining based assay (reference value: 6.28); format: functional
Mus musculus [6] = experiment: as §3, with “lung texture” for “histopathological changes by measuring modified Ashcroft score level”, “20 to 60” for “20”, “assay” for “assay (reference value: 6.28)”; format: functional, organism-based
Mus musculus [7] = experiment: Protection against lung fibrosis in C57BL/6 mouse model of bleomycin sulfate-induced idiopathic pulmonary fibrosis assessed as induction of body weight recovery at 20 mg/kg, po dosed once daily for 31 days followed by bleomycin sulfate challenge on day 3; format: functional, organism-based
Mus musculus [8] = experiment: as §3, with “60” for “20”; format: functional
Mus musculus [9] = experiment: as §1, with “20” for “60”; format: functional
Mus musculus [10] = experiment: as §3, with “lung texture” for “histopathological changes by measuring modified Ashcroft score level”, “assay” for “assay (reference value: 6.28)”; format: functional, organism-based
Mus musculus [11] = experiment: as §1, with “cleavage at 20 to 60 mg/kg,” for “cleavage at 60 mg/kg,”; format: functional, organism-based
Mus musculus [12] = experiment: as §3, with “lung texture” for “histopathological changes”, “60” for “20”, “Masson” for “hematoxylin and eosin”, “assay” for “assay (reference value: 6.28)”; format: functional
Mus musculus [13] = experiment: as §2, with “induction of improvement in lung texture at 60” for “induction of body weight recovery at 60”, “day 3 by hematoxylin and eosin staining based assay” for “day 3”; format: functional, organism-based

Compound CCn1cc(C(=O)N/N=C/c2ccc(Cl)cc2)c2cc(-c3nc(CN4CCC(O)CC4)cs3)ccc21 has an IC50 (Autotaxin [1]) of 180 nM.
CCn1cc(C(=O)N/N=C/c2ccc(F)cc2)c2cc(-c3nc(CN4CCOCC4)cs3)ccc21 showed an IC50 (Autotaxin [1]) of 1370 nM.
Work on CCCC[C@@H](CCCC(=O)NO)NC(=O)CCCCC(=O)Nc1ccccc1 yielded an IC50 (Autotaxin [2]) of 60 nM.
CCn1cc(C(=O)N/N=C/c2ccc3c(c2)OCO3)c2cc(-c3nc(CN4CCCCC4)cs3)ccc21 was tested, and the IC50 (Autotaxin [1]) was 1550 nM.
CCn1cc(C(=O)N/N=C/c2ccc3c(c2)OCO3)c2cc(-c3nc(CN4CCN(C)CC4)cs3)ccc21 gave an IC50 (Autotaxin [1]) of 757 nM.
With CCn1cc(C(=O)N/N=C/c2ccc(OC)cc2)c2cc(-c3nc(CN4CCOCC4)cs3)ccc21 the IC50 (Autotaxin [1]) was > 10000 nM.
Work on CCn1cc(C(=O)N/N=C(\C)c2ccc(F)cc2)c2cc(-c3nc(CN4CCC[C@H]4CO)cs3)ccc21 yielded an IC50 (Autotaxin [1]) of 15.7 nM.
CCn1cc(NC(=O)O[C@H](C)c2ccc(C)cc2)c2cc(-c3nc(CN4CCC[C@H]4CO)cs3)ccc21 showed an IC50 (Autotaxin [1]) of 36.9 nM.
In the case of CCn1cc(C(=O)N/N=C/c2ccc3c(c2)OCO3)c2cc(-c3nc(CN4CCC(C)CC4)cs3)ccc21, the IC50 (Autotaxin [1]) is reported as > 10000 nM.
With CCn1cc(NC(=O)OCc2ccc(F)c(F)c2)c2cc(-c3nc(CN4CCC(O)CC4)cs3)ccc21 the Activity (Mus musculus [3]) was 3.37 a.u, the Activity (Mus musculus [4]) was “Active” and the Activity_index (Mus musculus [5]) was 4.66. The Activity (Mus musculus [6]) was “Dose-dependent effect”, the Activity (Mus musculus [7]) was “Active” and the Activity_index (Mus musculus [8]) was 3.2. For the same compound, the Activity (Mus musculus [9]) was 3.85 a.u, the Activity (Mus musculus [10]) was “Active” and the inhibition (Mus musculus [11]) was “Dose-dependent effect”. The IC50 (Autotaxin [1]) was 1.01 nM.
For CCn1cc(NC(=O)OCc2cccc(Cl)c2Cl)c2cc(-c3nc(CN4CCN(CCO)CC4)cs3)ccc21, the IC50 (Autotaxin [1]) was 62.7 nM.
CCN1CCN(Cc2csc(-c3ccc4c(c3)c(C(=O)N/N=C/c3ccc(Cl)cc3)cn4CC)n2)CC1 gave an IC50 (Autotaxin [1]) of 2310 nM.
For CCn1cc(C(=O)N/N=C/c2ccc(F)cc2)c2cc(-c3nc(CN4CCN(CCO)CC4)cs3)ccc21, the IC50 (Autotaxin [1]) was 135 nM.
With CCn1cc(NC(=O)OCc2ccccc2)c2cc(-c3nc(CN4CCC(O)CC4)cs3)ccc21 the IC50 (Autotaxin [1]) was 970 nM.
In the case of CCn1cc(C(=O)N/N=C/c2ccc(Cl)cc2)c2cc(-c3nc(CN4CCCC4)cs3)ccc21, the IC50 (Autotaxin [1]) is reported as 1170 nM.
In the case of CCn1cc(C(=O)N/N=C/c2ccc(F)cc2)c2cc(-c3nc(CN4CCC(C)CC4)cs3)ccc21, the IC50 (Autotaxin [1]) is reported as > 10000 nM.
With CCn1cc(C(=O)N/N=C/c2ccc(F)cc2)c2cc(-c3nc(CN4CCCCC4)cs3)ccc21 the IC50 (Autotaxin [1]) was 3960 nM.
In the case of CCn1cc(NC(=O)OCc2ccc3c(c2)OCO3)c2cc(-c3nc(CN4CCC(O)CC4)cs3)ccc21, the IC50 (Autotaxin [1]) is reported as 34.1 nM.
CCn1cc(C(=O)N/N=C/c2ccc3c(c2)OCO3)c2cc(-c3nc(CN4CCN(CCO)CC4)cs3)ccc21 was tested, and the IC50 (Autotaxin [1]) was 1320 nM.
CCn1cc(NC(=O)OCc2ccc(F)c(F)c2)c2cc(-c3nc(CN4CCC[C@H]4CO)cs3)ccc21 gave an IC50 (Autotaxin [1]) of 297 nM.
Compound CCn1cc(NC(=O)O[C@H](C)c2ccc(C)cc2)c2cc(-c3nc(CN4CCC(O)CC4)cs3)ccc21 has an IC50 (Autotaxin [1]) of 117 nM.
With CCn1cc(NC(=O)OCc2ccc3c(c2)OCO3)c2cc(-c3nc(CN4CCC[C@H]4CO)cs3)ccc21 the IC50 (Autotaxin [1]) was 34.7 nM.
With CCn1cc(C(=O)N/N=C/c2ccc3c(c2)OCO3)c2cc(-c3nc(CN4CCC(O)CC4)cs3)ccc21 the IC50 (Autotaxin [1]) was 107 nM.
CCn1cc(NC(=O)O[C@H](C)c2ccccc2Cl)c2cc(-c3nc(CN4CCC(O)CC4)cs3)ccc21 was tested, and the IC50 (Autotaxin [1]) was 210 nM.
CCn1cc(C(=O)N/N=C(\C)c2ccc(F)cc2)c2cc(-c3nc(CN4CCCC4)cs3)ccc21 gave an IC50 (Autotaxin [1]) of 2740 nM.
CCn1cc(NC(=O)OCc2cc(Cl)cc(Cl)c2)c2cc(-c3nc(CN4CCN(CCO)CC4)cs3)ccc21 was tested, and the Activity (Mus musculus [3]) was 3.25 a.u, the Activity (Mus musculus [4]) was “Active” and the Activity_index (Mus musculus [12]) was 2.01. For the same compound, the Activity (Mus musculus [7]) was “Active”, the Activity_index (Mus musculus [8]) was 2.04 and the Activity (Mus musculus [9]) was 3.43 a.u. For the same compound, the Activity (Mus musculus [10]) was “Active”, the inhibition (Mus musculus [11]) was “Dose-dependent effect” and the IC50 (Autotaxin [1]) was 0.43 nM.
CN(C)Cc1csc(-c2ccc3[nH]cc(C(=O)O)c3c2)n1 gave an IC50 (Autotaxin [1]) of 740 nM.
CCn1cc(C(=O)N/N=C(\C)c2ccc(F)cc2)c2cc(-c3nc(CN4CCC(O)CC4)cs3)ccc21 was tested, and the IC50 (Autotaxin [1]) was 69.4 nM.
CN1CCN(Cc2csc(-c3ccc4c(c3)c(C(=O)N/N=C/c3ccc(F)cc3)cn4C)n2)CC1 showed an IC50 (Autotaxin [1]) of 5240 nM.
CCn1cc(NC(=O)OCc2cc(Cl)cc(Cl)c2)c2cc(-c3nc(CN(CCO)CCO)cs3)ccc21 gave an IC50 (Autotaxin [1]) of 21.3 nM.
Work on CCn1cc(NC(=O)O[C@H](C)c2ccccc2Cl)c2cc(-c3nc(CN4CCC[C@H]4CO)cs3)ccc21 yielded an IC50 (Autotaxin [1]) of 199 nM.
With Cn1cc(C(=O)N/N=C/c2ccc(Cl)cc2)c2cc(-c3nc(CN4CCOCC4)cs3)ccc21 the IC50 (Autotaxin [1]) was > 10000 nM.
In the case of Cn1cc(C(=O)N/N=C/c2ccc3c(c2)OCO3)c2cc(-c3nc(CN4CCOCC4)cs3)ccc21, the IC50 (Autotaxin [1]) is reported as > 10000 nM.
For CCn1cc(NC(=O)OCc2cccc(Cl)c2Cl)c2cc(-c3nc(CN4CCC(O)CC4)cs3)ccc21, the IC50 (Autotaxin [1]) was 127 nM.
With C/C(=N\NC(=O)c1cn(C)c2ccc(-c3nc(CN4CCN(C)CC4)cs3)cc12)c1ccc(F)cc1 the IC50 (Autotaxin [1]) was > 10000 nM.
Compound CCN1CCN(Cc2csc(-c3ccc4c(c3)c(C(=O)N/N=C/c3ccc(F)cc3)cn4CC)n2)CC1 has an IC50 (Autotaxin [1]) of 1350 nM.
In the case of CCn1cc(NC(=O)OCc2ccc3c(c2)OCO3)c2cc(-c3nc(CN(CCO)CCO)cs3)ccc21, the IC50 (Autotaxin [1]) is reported as 30.7 nM.
CCn1cc(C(=O)N/N=C(\C)c2ccc(F)cc2)c2cc(-c3nc(CN4CCN(CCO)CC4)cs3)ccc21 gave an IC50 (Autotaxin [1]) of 508 nM.
In the case of CCn1cc(C(=O)N/N=C/c2ccc(OC)cc2)c2cc(-c3nc(CN4CCCCC4)cs3)ccc21, the IC50 (Autotaxin [1]) is reported as 1460 nM.
In the case of CCn1cc(C(=O)N/N=C/c2ccc3c(c2)OCO3)c2cc(-c3nc(CN4CCOCC4)cs3)ccc21, the IC50 (Autotaxin [1]) is reported as > 10000 nM.
For CCn1cc(C(=O)N/N=C/c2ccc3c(c2)OCO3)c2cc(-c3nc(CN4CCC[C@H]4CO)cs3)ccc21, the IC50 (Autotaxin [1]) was 610 nM.
CCn1cc(C(=O)N/N=C(\C)c2ccc(F)cc2)c2cc(-c3nc(CN4CCOCC4)cs3)ccc21 was tested, and the IC50 (Autotaxin [1]) was 1840 nM.
Work on CN1CCN(Cc2csc(-c3ccc4c(c3)c(C(=O)N/N=C/c3ccc5c(c3)OCO5)cn4C)n2)CC1 yielded an IC50 (Autotaxin [1]) of 879 nM.
For CCn1cc(NC(=O)OCc2cc(Cl)cc(Cl)c2)c2cc(-c3nc(CN4CCC(O)CC4)cs3)ccc21, the IC50 (Autotaxin [1]) was 613 nM.
With CCc1nc2c(C)cc(N3CCN(CC(=O)N4CC(O)C4)CC3)cn2c1N(C)c1nc(-c2ccc(F)cc2)c(C#N)s1 [ZIRITAXESTAT] the Activity (Mus musculus [3]) was 4.03 a.u, the Activity (Mus musculus [4]) was “Active” and the Activity (Mus musculus [13]) was “Active”.
In the case of Cn1cc(C(=O)N/N=C/c2ccc(F)cc2)c2cc(-c3nc(CN4CCOCC4)cs3)ccc21, the IC50 (Autotaxin [1]) is reported as 2870 nM.
Work on CCn1cc(C(=O)N/N=C/c2ccc(F)cc2)c2cc(-c3nc(CN4CCC[C@H]4CO)cs3)ccc21 yielded an IC50 (Autotaxin [1]) of 655 nM.
For CCn1cc(C(=O)N/N=C/c2ccc(Cl)cc2)c2cc(-c3nc(CN4CCN(CCO)CC4)cs3)ccc21, the IC50 (Autotaxin [1]) was 231 nM.
CCn1cc(C(=O)N/N=C/c2ccc(F)cc2)c2cc(-c3nc(CN4CCC(O)CC4)cs3)ccc21 showed an IC50 (Autotaxin [1]) of 906 nM.
For CCn1cc(C(=O)N/N=C(\C)c2ccc(F)cc2)c2cc(-c3nc(CN4CCN(C)CC4)cs3)ccc21, the IC50 (Autotaxin [1]) was 2530 nM.
With CCN1CCN(Cc2csc(-c3ccc4c(c3)c(C(=O)N/N=C(\C)c3ccc(F)cc3)cn4CC)n2)CC1 the IC50 (Autotaxin [1]) was 1590 nM.
Compound CCn1cc(NC(=O)OCc2ccccc2)c2cc(-c3nc(CN4CCC[C@H]4CO)cs3)ccc21 has an IC50 (Autotaxin [1]) of 122 nM.
